Literature values, collected in patent US20210361600A1, “METHODS FOR INDUCING CHONDROGENESIS” (THE SCRIPPS RESEARCH INSTITUTE, priority 2017, published 2021).

How the values were obtained:
FLNA FC-1 fragment = conditions: previously validated with BKA affinity probe; cited from earlier work
CBFβ = conditions: previously demonstrated; cited from earlier work

O=C(O)c1ccccc1C(=O)Nc1ccc(-c2ccccc2)cc1 [KGN, kartogenin]
binding to FC-1 fragment of FLNA (FLNA FC-1 fragment): directly mediate the binding | nuclear localization of CBFβ (CBFβ): increase the nuclear localization of CBFβ
